Entries after “also recorded” stand apart in the source; their conditions may differ.
Columns and labels:
SK-Hep-1 cells = assay: Anchorage independent growth colony formation assay, SK-Hep-1; assay type: cell-based, Human
Description: (§1) Cell Lines/Cells. Human cell lines HepG2 and SK-Hep-1 cells were obtained from American Type Culture Collection (ATCC; Manassas, Va.). Cells were cultured in DMEM (Dulbecco's Modified Eagle's Medium) (Mediatech; Mannasas, Va.) with 10% Premium FBS (Lonza, Walkersville, Md.).
(1) Single Agent Colony Formation Assay. Nobel Agar (1.2 grams; BD; Franklin Lakes, N.J.) was placed in a 100-mL sterile bottle. Sterile water (100 mL) was added and microwaved until the agar boiled. Equal volumes of agar and 2×RPMI medium (ECE Scientific; Doylestown, Pa.) were mixed and 300 μL were transferred to each well in a 24-well flat bottom plate (BD; Franklin Lakes, N.J.). Plates were kept at 4° C. until the agar solidified. Cultures of HepG2 and SK-Hep-1 cells were harvested and resuspended in culture medium at 3.6×10^3 cells/mL. Equal volumes of agar, 2×RPMI, and cell suspension (1:1:1) were mixed in a sterile tube and 500 μL/well were immediately transferred into the 24-well plates. Plates were kept at 4° C. until the agar solidified. Culture medium (500 μL) containing compound or DMSO was added to each well (final DMSO concentration for each treatment was 0.2%). Compound 1 was tested at final concentrations of 0.1, 0.3, 1, 3, 10 and 30 μM. Cell treatments were set up in triplicate. Cells were incubated for 8-10 days at 37° C. in a 5% CO2 atmosphere. Photographs (2× magnification) of each well were taken using a Nikon DXM1200 Digital Camera and Nikon ACT1 software and saved as a TIFF file. ImageQuant TL (GE Healthcare; Piscataway, N.J.) Colony Count Software was used to count colonies. (2) Combination Study Colony Formation Assay. Nobel Agar (1.2 grams; BD; Franklin Lakes, N.J.) was placed in a 100-mL sterile bottle. Sterile water (100 mL) was added and microwaved until the agar boiled. […]
(§2) Significance versus the DMSO control was calculated using One Way ANOVA and Dunnett's Post test or unpaired t tests using GraphPad Prism v5.01.

HepG2 cells = assay: Anchorage independent growth colony formation assay, HepG2; assay type: cell-based, Human; details: for colony formation, % of control: HepG2, single agent, 8 days
Description: as §1
(1) Single Agent Colony Formation Assay. Nobel Agar (1.2 grams; BD; Franklin Lakes, N.J.) was placed in a 100-mL sterile bottle. Sterile water (100 mL) was added and microwaved until the agar boiled. Equal volumes of agar and 2×RPMI medium (ECE Scientific; Doylestown, Pa.) were mixed and 300 μL were transferred to each well in a 24-well flat bottom plate (BD; Franklin Lakes, N.J.). Plates were kept at 4° C. until the agar solidified. Cultures of HepG2 and SK-Hep-1 cells were harvested and resuspended in culture medium at 3.6×10^3 cells/mL. Equal volumes of agar, 2×RPMI, and cell suspension (1:1:1) were mixed in a sterile tube and 500 μL/well were immediately transferred into the 24-well plates. Plates were kept at 4° C. until the agar solidified. Culture medium (500 μL) containing compound or DMSO was added to each well (final DMSO concentration for each treatment was 0.2%). Compound 1 was tested at final concentrations of 0.1, 0.3, 1, 3, 10 and 30 μM. Cell treatments were set up in triplicate. Cells were incubated for 8-10 days at 37° C. in a 5% CO2 atmosphere. Photographs (2× magnification) of each well were taken using a Nikon DXM1200 Digital Camera and Nikon ACT1 software and saved as a TIFF file. ImageQuant TL (GE Healthcare; Piscataway, N.J.) Colony Count Software was used to count colonies. (2) Combination Study Colony Formation Assay. Nobel Agar (1.2 grams; BD; Franklin Lakes, N.J.) was placed in a 100-mL sterile bottle. Sterile water (100 mL) was added and microwaved until the agar boiled. Equal volumes of agar and 2×RPMI medium (ECE Scientific; Doylestown, Pa.) were mixed and 300 μL were transferred to each well in a 24-well flat bottom plate (BD; Franklin Lakes, N.J.). Plates were kept at 4° C. until the agar solidified. Cultures of HepG2 and SK-Hep-1 cells were harvested and resuspended in culture medium at 3.6×10^3 cells/mL. Equal volumes of agar, 2×RPMI, and cell suspension (1:1:1) were mixed in a sterile tube and 500 µL/well were immediately transferred into the 24-well plates. Plates were kept at 4° C. until the agar solidified. Culture medium (500 μL) containing compound or DMSO was added to each well (final DMSO concentration for each treatment was 0.2%). Cells were treated with single treatment as follows: Compound 1 was tested at final concentrations of 0.1 and 0.3 μM. Cell treatments were set up in triplicate. Cells were incubated for 8-10 days at 37° C. in a 5% CO2 atmosphere. Photographs (2× magnification) of each well were taken using a Nikon DXM1200 Digital Camera and Nikon ACT1 software and saved as a TIFF file. ImageQuant TL (GE Healthcare; Piscataway, N.J.) Colony Count Software was used to count colonies.
as §2

OCI-Ly10 xenograft = assay: OCI-Ly10 DLBCL xenograft model; assay type: in vivo, SCID mice
From the text: OCI-Ly10 cells are derived from a diffuse-large B-cell lymphoma, a type of non-Hodgkins lymphoma. Female SCID mice (Fox Chase SCID®, CB 17/Icr-Prkdcscid, Charles River), characterized by severe combined T and B cell immunodeficiency, were 10 weeks old, with body weights ranging from 15.4 to 24.2 g, on Day 1 of this study. In brief, female CB.17 SCID mice were inoculated with 5×10^6 OCI-Ly10 cells subcutaneously, and tumors were allowed to grow to approximately 100-150 mm^3 before stratification into treatment groups, so as to yield groups with comparably sized tumors prior to treatment. In addition to the efficacy treatment groups, some mice were stratified into short-term treatment groups and their tumors were collected 4 hours post final dosing in groups that received saline, 30 mg/kg or 10 mg/kg Compound A, or 3 mg/kg Compound 1 once daily for seven days, starting on day 27. Frozen, and fixed paraffin-embedded, samples were analyzed. In the efficacy arm of the study, dosing began on Day 1 (D1) in 12 groups of mice (n=10/group) with established subcutaneous tumors (mean volumes, 120-129 mm^3). Compound A (at two dose levels) and Compound 1 (at one dose level) were each administered once daily for 28 days (qd×28). Control mice received the vehicle, 5% DMSO/15% Solutol® HS15/80% PBS, p.o. b.i.d.×28. On D29 a 21-day dosing extension, from day 33 to day 53, in the control and five test groups was implemented, resulting in b.i.d.×28/4/21 or qd×28/4/21 schedules for these groups.
Tumors were calipered twice weekly, and each mouse in the efficacy study was euthanized when its tumor reached the 1000 mm^3 volume endpoint, or on day 61, whichever came first. Efficacy was determined from tumor growth delay (TGD), defined as the increase in the median time-to-endpoint (TTE) in drug-treated (T) versus vehicle-treated (C) mice, and from the significance of survival extension.

WSU-DLCL2 xenograft = assay: DLBCL xenograft model (WSU-DLCL2); assay type: in vivo, SCID mice; details: for decrease in tumor volume (TVR) vs vehicle: Day 34, Compound 1 10 mg/kg QD, Compound A 30 mg/kg QD, Compound AA 50 mg/kg BID, oral; for tumor volume reduction (TVR) vs vehicle: initial study, oral QD, end of 3-week dosing, Day 35
Description: Severe combined immunodeficiency (SCID) mice were implanted with human DLBCL cell line (WSU-DLCL2) into the flank. Treatment of compounds started between Day 11 and Day 14 after cell inoculation. Randomized groups of mice (n=9 to 10/group) were treated with the single agents (Compound 1, Compound A or Compound AA) or the combination of Compound 1/Compound A, Compound A/Compound AA, or Compound 1/Compound AA. Compounds were administered orally on a once daily (Compound 1 and Compound A) or twice daily […] schedule for 21 days. The positive control consisted of CHOP therapy (combination of cyclophosphamide, doxorubicin, vincristine and prednisone). Compound 1 and Compound A were formulated in CMC-Tween (carboxymethylcellulose/Tween 80/deionized water). Compound AA was suspended in DSP (dimethylsulphoxide/solutol/phosphate buffered saline).
Initial studies were conducted in order to determine the antitumor activity of Compound 1 and to identify a dose level for the combination studies. In the WSU-DLCL2 xenograft model, Compound 1 inhibited tumor growth in a dose-dependent fashion. […] In a subsequent combination study, Compound 1 was dosed at 10 mg/kg, once daily (QD). Compound A and Compound AA were dosed at 30 mg/kg (QD) and 50 mg/kg (BID), respectively.

[1] = tested on: SUDHL4 (DLBCL) xenografts; assay: CIVO arrayed microinjection, SUDHL4 xenograft, cleaved caspase 3; assay type: in vivo, Nu/Nu mice; details: systemic Compound A 30 mpk QD×8 -/+ dexamethasone 5 mpk, local Compound 2 13 μg in 4 μL
Description: (§3) Anesthetized Nu/Nu mice harboring xenografted tumors were injected with multiple individual compounds or compound combinations, simultaneously, each into a distinct location of the tumor. Precise, controlled delivery of the compounds was evaluated for spatially defined and cellular changes around sites of tumor microinjection across xenograft models of DLBCL. Tumors were resected and injection quality was assessed by IVIS imaging of co-injected near-infrared tracking dye. Sections from representative regions down the z-axis of the tumor were prepared for staining with biomarkers of pathway inhibition and tumor response. Samples were then batch scanned in a Caliper Pannoramic slide scanner, resulting in high resolution images compatible with single cell analysis and subsequent data quantification via Presage's CIVO™ analyzer custom image analysis platform (for technology description, see R. Klinghoffer et al, AACR, 2014 and Presagebio.com).
In order to evaluate combination effects of Compound A with other compounds in the DLBCL model SUDHL4, vehicle or Compound A (30 mpk QD×8)−/+ dexamethasone (5 mpk QD×8) was given systemically. […] Apoptosis was evaluated by measurement of the apoptosis marker, cleaved caspase 3 (CC3), which was plotted as a function of distance from the injection site.

OCILy10 xenografts = assay: CIVO arrayed microinjection, OCILy10 xenograft, cleaved caspase 3; assay type: in vivo, Nu/Nu mice
Description: as §3
In order to evaluate combination treatment with Compound 1, Compound A and Compound AA, mice with OCILy10 xenografts were treated systemically with Compound A 30 mpk QD×4 followed by Compound A 30 mpk and Compound 110 mpk QD×3. At 3 hours after the 7th systemic dose, Compound AA (15.4 μg in 4 μL injected) was injected locally at three sites. […]

[2] = tested on: doxorubicin-resistant Ramos cell xenografts; assay: CIVO local injection, parental and doxorubicin-resistant RAMOS xenograft, cleaved caspase 3; assay type: in vivo, Nu/Nu mice; details: tumors harvested 24 hour post injection
Description: as §3
Mice with parental or doxorubicin-resistant Ramos cell xenografts were injected locally with vehicle (4 μL), Compound 2 (13 μg in 4 μL injected), Compound 1 (39 μg in 4 μL injected), or Vincristine (1.47 μg in 4 μL (400 μM) injected). Tumors were harvested 24 hour post injection.

[3] = extended schedule qd×28/4/21: Compound A 10 mg/kg, Compound 1 3 mg/kg
[4] = extended schedule qd×28/4/21: Compound A 10 mg/kg, Compound 1 3 mg/kg, alone or combined
[5] = combination study, single agents or in combination
[6] = 28-day schedule: Compound A 30 mg/kg qd×28, alone or with Compound 1

CO[C@H]1CC[C@H](N2C(=O)CNc3ncc(-c4ccc(C(C)(C)O)nc4)nc32)CC1 [Compound 1, 7-(6-(2-hydroxypropan-2-yl)pyridin-3-yl)-1-((1r,4r)-4-methoxycyclohexyl)-3,4-dihydropyrazino-[2,3-b]pyrazin-2(1H)-one]
anti-colony forming activity (SK-Hep-1 cells; SK-Hep-1, concentrations of 0.1 to 100 μM): dose-dependent and significant anti-colony forming activity
inhibition of colony formation (SK-Hep-1 cells; SK-Hep-1, single agent, 3 μM and higher): 100%
colony formation, % of control (SK-Hep-1 cells; SK-Hep-1, single agent, 0.3-30 μM, 8-10 days): 0-45 % of control
anti-colony forming activity (HepG2 cells; HepG2, concentrations of 0.1 to 100 μM): dose-dependent and significant anti-colony forming activity
colony formation, % of control (HepG2 cells; 0.1 μM): 74 % of control
colony formation, % of control (HepG2 cells; 0.3 μM): 57 % of control
colony formation, % of control (HepG2 cells; 1 μM): 33 % of control
colony formation, % of control (HepG2 cells; 3 μM): 24 % of control
colony formation, % of control (HepG2 cells; 10 μM): 16 % of control
colony formation, % of control (HepG2 cells; 30 μM): 11 % of control
tumor growth delay (TGD), % (OCI-Ly10 xenograft; [3]): 73%
PRs / regressions (OCI-Ly10 xenograft; [4]): one
survivors (n=10/group) (OCI-Ly10 xenograft; [4]): five
tumor growth delay (TGD) (OCI-Ly10 xenograft; [4]): 23.8 days
decrease in tumor volume (TVR) vs vehicle (WSU-DLCL2 xenograft; combination study): 29%
body weight loss (WSU-DLCL2 xenograft; [5]): No significant body weight loss
tumor volume reduction (TVR) vs vehicle (WSU-DLCL2 xenograft; 1 mg/kg): ~22%
tumor volume reduction (TVR) vs vehicle (WSU-DLCL2 xenograft; 3 mg/kg): ~28%
body weight loss (WSU-DLCL2 xenograft; initial study, 1, 3 and 10 mg/kg): No significant body weight loss

Cc1nc2cccc(N)c2c(=O)n1C1CCC(=O)NC1=O (centres unmarked) [Compound A, 3-(5-Amino-2-methyl-4-oxoquinazolin-3(4H)-yl)-piperidine-2,6-dione]
tumor growth delay (TGD), % (OCI-Ly10 xenograft; 28-day schedule: Compound A 30 mg/kg qd×28): 88%
PRs (OCI-Ly10 xenograft; [6]): two
survivors (n=10/group) (OCI-Ly10 xenograft; [6]): seven
tumor growth delay (TGD) (OCI-Ly10 xenograft; [6]): 28.6 days
tumor growth delay (TGD), % (OCI-Ly10 xenograft; [3]): 27%
PRs / regressions (OCI-Ly10 xenograft; [4]): no regressions
survivors (n=10/group) (OCI-Ly10 xenograft; [4]): three
tumor growth delay (TGD) (OCI-Ly10 xenograft; [4]): 8.9 days
decrease in tumor volume (TVR) vs vehicle (WSU-DLCL2 xenograft; combination study): 30%
body weight loss (WSU-DLCL2 xenograft; [5]): No significant body weight loss
apoptosis (cleaved caspase 3) induced by local treatment with Compound 2 [1]: enhanced induction of apoptosis
apoptosis (cleaved caspase 3) induced by local treatment with Compound 2 ([1]; listed as compound A): enhanced cell death
cell death (CC3 positive sites) at Compound AA injection sites (OCILy10 xenografts; systemic Compound A 30 mpk, with or without Compound 1 10 mpk, local Compound AA): did not lead to cell death
CC3 positive sites (OCILy10 xenografts; systemic dose, local injection of Compound AA 15.4 μg in 4 μL, total sites 18 and 26): 0

CC[C@]1(O)C[C@H]2CN(CCc3c([nH]c4ccccc34)[C@@](C(=O)OC)(c3cc4c(cc3OC)N(C=O)[C@H]3[C@@](O)(C(=O)OC)[C@H](OC(C)=O)[C@]5(CC)C=CCN6CC[C@]43[C@@H]65)C2)C1 [Vincristine, reference compound]
sensitivity of doxorubicin resistant vs parental Ramos cells (cleaved caspase 3 vs distance from injection site) [2]: resistant

CCN1C(=O)CNc2ncc(-c3ccc(-c4nc[nH]n4)nc3C)nc21 [Compound 2, 1-ethyl-7-(2-methyl-6-(1H-1,2,4-triazol-3-yl)pyridin-3-yl)-3,4-dihydropyrazino[2,3-b]pyrazin-2(1H)-one]
sensitivity of doxorubicin resistant vs parental Ramos cells (cleaved caspase 3 vs distance from injection site) [2]: increased sensitivity; also recorded: more sensitive
